Reference: patent US10052304B2, “Compositions and methods for cancer therapy” (UNIVERSITY OF IOWA RESEARCH FOUNDATION, priority 2015, dated 2018)
“Also recorded” adds a separate entry of the source.

What was measured:
[1] = tested on: stage IV pancreas cancer patients; conditions: cited from earlier work
[2] = tested on: advanced stage NSCLC patients; assay: Phase II clinical trial of pharmacological ascorbate with carboplatin and paclitaxel in advanced stage NSCLC; assay type: in vivo, human
Protocol: This phase II clinical trial was registered with clinicaltrials.gov (NCT 02420314) prior to enrollment of the first subject. Newly diagnosed advanced stage NSCLC patients were invited to participate.
Whole blood was collected from patients around infusions.
(§1) We have not seen any unexpected or unusual increase in Grade 3/4 toxicities as compared to previously published literature, although it remains too early for a direct comparison. Responses to therapy were determined per RECIST 1.1 criteria (Eisenhauer et al., 2009). Currently, four of six patients have completed the trial with imaging-confirmed partial responses to therapy. […] Finally, one patient progressed with a new spinal lesion, although the target lesions are stable; this patient has been transitioned off of the trial.
as §1, with “This phase II clinical trial was registered with clinicaltrials.gov (NCT 02420314) prior to enrollment of the first subject. Newly diagnosed advanced stage NSCLC patients were invited to participate. […] We” for “We”, “a total” for “four”, “eleven subjects have been recruited to the trial, seven of which are currently evaluable for response. Five of seven” for “six”

[3] = tested on: U87 xenografts; assay: GBM (U87) flank xenograft model; assay type: in vivo, mice
Protocol: Female 4-6 week old female athymic-nu/nu mice were purchased from Envigo (previously Harlan Laboratories) and housed in the Animal Care Facility at the University of Iowa (Iowa City, Iowa), and all procedures were approved by the University of Iowa Institutional Animal Care and Use Committee and conformed to NIH guidelines. 1×10^6 H292 or U87 cells were injected subcutaneously into the right rear flank and mice were euthanized and sacrificed when tumor length exceeded 1.5 cm in any dimension.
1×10^6 H292 or U87 cells were injected subcutaneously into the right rear flank. […] Tumors were measured every other day with Vernier calipers (volume=(length×width×(width/2)) and mice were euthanized and sacrificed when tumor length exceeded 1.5 cm in any dimension.

[4] = tested on: ferritin; conditions: read-out: Km of ascorbate-mediated Fe^+2 release from ferritin; cited from earlier work
[5] = tested on: terminal cancer patients; conditions: high doses of ascorbate given both IV and orally; cited from earlier work
[6] = tested on: HBEpCs; assay: Intracellular H2O2 with PeroxyOrange-1, HBEpCs; assay type: cell-based, human; conditions: ascorbate 15 pmol cell^−1
Protocol: (§2) To visualize intracellular H2O2 levels, the selectively sensitive fluorescent probe PeroxyOrange-1 was utilized as previously described with modifications (Dickinson et al., 2010). 1×10^5 cells were plated and grown in their respective media for 48 h. The complete protocol was conducted in the dark with minimal ambient lighting. Cells were washed with PBS and incubated with 10 uM PO-1 in phenol red free RPMI supplemented with HBE growth supplements for 1 h at 37° C. Cells were then washed in PBS and placed back in phenol red free RPMI supplemented with HBE growth supplements. […] At times indicated, cells were placed on ice for the remainder of the protocol, washed, and trypsinized with phenol red free 0.5% trypsin. After 15 min, cells still attached were scraped and all cells were collected in 15 mL conical vials containing PBS+10% FBS to neutralize the trypsin reaction. Cells were spun at 1200 rpm for 5 min at 4° C., resuspended in 300-500 uL PBS and were run on a LSR II Flow Cytometer (BD Biosciences) with λex=561 nm, λem=585/20 nm. The mean fluorescence intensity (MFI) was analyzed (FlowJo™) and corrected for autoflourescence against unlabeled cells. Normalized MFI was calculated by comparing MFI for a given treatment group against control.

[7] = tested on: U87 cells; assay: Clonogenic survival assay, U87 GBM cells; assay type: cell-based, human
Protocol: Treatment conditions for individual experiments are as described in the figure legends and summarized in the Supplemental Experimental Procedures.
1-2×10^5 cells were plated in 60 mm cell culture dishes and grown in their respective media for 48 h before exposed to experimental conditions. […] For AdGPx1 experiments, cells were supplemented with 50 nM sodium selenite following transduction and throughout clonogenic growth. […] After treatment, cells were washed with PBS and clonogenic assay was completed in their respective media. Briefly, floating and attached cells were collected and total cells per plate were counted. An experimentally derived number of cells were plated into each well of a 6-well cell culture plate in their respective media. For HEL92.1.7 suspension cells, cells were seeded in a top layer of 0.4% (w/v) agarose to allow for quantifiable colony formation. […] Normalized survival fractions were calculated by comparing plating efficiencies of each treatment group against the control group within a given experiment.

[8] = tested on: NSCLC cells; assay: Intracellular H2O2 with PeroxyOrange-1, NSCLC cells; assay type: cell-based, human; conditions: ascorbate 15 pmol cell^−1
Protocol: as §2

[9] = IV delivery; cited from earlier work
[10] = tested on: NSCLC cells; assay: Cellular labile iron pool (Calcein-AM flow cytometry), NSCLC cells; assay type: cell-based, human; conditions: increasing doses of ascorbate
Protocol: The labile iron pool (LIP) was visualized using the fluorescent dye Calcein-AM as previously described (Epsztejn et al., 1997) with modifications. After labeling, samples were divided into two flow cytometry sample tubes, to which 100 μM 2′,2′-bipyridyl (BIP) was added to one tube and analyzed by flow cytometry. BIP tubes were incubated for at least 15 minutes before analysis to allow for full chelation of intracellular labile iron. The LIP (A.U.)=MFIBIP−MFINoBIP was normalized against the control samples to calculate the relative labile iron pool.
The labile iron pool (LIP) was visualized using the fluorescent dye Calcein-AM as previously described with modifications (Epsztejn et al., 1997). Briefly, after sample treatment, cells were trypsinized, spun at 1,200 rpm for 5 min, and resuspended at approximately 1×10^6 cells mL-1 in 500 nM Calcein-AM in PBS. Samples were incubated for 15 min at 4% O2 in a humidity controlled environment (37° C., 5% CO2). Subsequently, samples were pelleted, washed in PBS, and resuspended in 1 mL PBS before dividing each sample into two flow cytometry sample tubes, to which 100 μM 2′,2′-bipyridyl (BIP) was added to one tube. Samples were kept at room temperature and analyzed on a LSR II Flow Cytometer (BD Biosciences; λex=488 nm, λem=515/20 nm). […]

[11] = first six patients, ascorbate 75 g twice weekly + carboplatin/paclitaxel

Structure (SMILES): O=C1O[C@H]([C@@H](O)CO)C(O)=C1O [ascorbate, L-ascorbic acid]
- side effects attributed to the combination ([1]; ascorbate + gemcitabine): rare and included diarrhea and dry mouth
- average survival ([1]; pharmacological ascorbate + gemcitabine, stage IV pancreas cancer): 14 months
- patient plasma ascorbate level ([2]; after 75 g IV infusions): 16.4 ± 0.5 mM
- patients with imaging-confirmed partial responses (RECIST 1.1) ([2]; ascorbate + carboplatin/paclitaxel, evaluable patients to date): four of six; also recorded: Five of seven
- disease control rate [2, 11]: 83%
- objective response rate [2, 11]: 67%
- grade 3/4 toxicities attributed to ascorbate ([2]; through 134 total infusions): no grade 3/4 toxicities attributed to ascorbate
- tolerability (mouse weight) ([3]; ascorbate 4 g kg^−1 IP daily): well tolerated
- overall survival ([3]; ascorbate 4 g kg^−1 IP daily + 12 Gy IR/2 fractions + weekly 2.5 mg kg^−1 TMZ): significantly increased overall survival
- Km [4]: 1300 µM
- average increase in survival [5]: 300 days
- steady-state levels of H2O2 (PeroxyOrange-1) [6]: unchanged
- sensitization to temozolomide + IR (clonogenic survival) ([7]; 1 h ascorbate + 25 μM temozolomide + 2 Gy IR): selectively sensitized
- clonogenic survival / cell killing ([7]; ascorbate alone, increasing concentrations, 1 h): dose-dependent clonogenic cell killing
- steady-state levels of H2O2 (PeroxyOrange-1) [8]: significantly increased from baseline
- serum ascorbate concentration achieved (effective therapeutic level) [9]: ≈ 20 mM
- cellular LIP after ascorbate [10]: significant dose-dependent ascorbate-induced increases in cellular LIP
